In patent US20010034365A1, “Halogen substituted carbamate compounds from 2-phenyl-1,2-ethanediol” (priority 1996, published 2001):

Tested on: mice (CF-1 strain)
Assay: Maximal ElectroShock (MES) test for anticonvulsants
Assay type: in vivo
Details: ip, Hour 1, elimination of hindlimb tonic extension

For CC(C)NC(=O)OC[C@H](OC(=O)NC(C)C)c1ccccc1Cl [Entry 15], the “ED50 (mg/Kg)” value was “≈10 (ip) mg/Kg”.

Tested on: mice (CF-1 strain)
Assay: as above
Assay type: in vivo
Details: dosed orally, Hour 1, elimination of hindlimb tonic extension
Description: The therapeutic use of the compounds claimed in the present invention as anticonvulsants has been proven by the “Maximal ElectroShock (MES)” test, which is a well-established pharmacological screening method for anticonvulsants against partial seizures, and the results are presented in Table 1. The procedure employed in the MES test for anticonvulsants follows. The compound dosing, solutions were prepared in saline, and the subject, namely, mice (CF-1 strain), were dosed orally. After the designated number of hours, maximal electroshock was induced in mice via corneal electrodes using IITC Life Science model 11A Shocker at 50 mA-60 Hz for […]. Upon inducing, maximal electroshock, the elimination of hindlimb tonic extension was considered as providing evidence of the protection by an anticonvulsant. Median efficacy dose (ED50) levels were determined using three different dose levels with at least 6 mice in each group.

Point of comparison: “(S)-(2-(2-chlorophenyl)-2-hydroxyethyl)oxocarboxamide [Entry 2]”, “ED50” value 13.0 mg/kg. Against it:
- NC(=O)OCC(OC(N)=O)c1c(Cl)cccc1Cl (stereo not drawn) [Entry 11, (DL)-(2-(2,6-dichlorophenyl)-2-carbamoyloxyethyl)-oxocarboxamide] — 1.8-fold lower, 7.4 mg/kg
- (R)-(2-(4-Chlorophenyl)-2-carbamoyloxyethyl)oxocarboxamide [Entry 9] — 2-fold higher, 26.2 mg/kg
- NC(=O)OCC(OC(N)=O)c1ccc(Cl)cc1 (stereo not drawn) [Entry 8, (DL)-(2-(4-Chlorophenyl)-2-carbamoyloxyethyl)oxocarboxamide] — 2.2-fold higher, 29.1 mg/kg
- (R)-(2-(2-Chlorophenyl)-2-hydroxyethyl)oxocarboxamide [Entry 3] — 3.8-fold higher, 50.0 mg/kg
- (R)-(2-(2-Chlorophenyl)-2-carbamoyloxyethyl)oxocarboxamide [Entry 6] — within 1.5-fold, 16.0 mg/kg
- (R)-(2-(2,6-Dichlorophenyl)-carbamoyloxyethyl)oxocarboxamide [Entry 12] — within 1.5-fold, 10.7 mg/kg
- (S)-(2-(2-Chlorophenyl)-2-carbamoyloxyethyl)oxocarboxamide [Entry 7] — 1.7-fold higher, 22.0 mg/kg
- NC(=O)OCC(O)c1ccccc1Cl (stereo not drawn) [Entry 1, (DL)-(2-(2-chlorophenyl)-2-hydroxyethyl)oxocarboxamide] — 2.6-fold higher, 33.7 mg/kg
- NC(=O)OCC(OC(N)=O)c1ccccc1Cl (stereo not drawn) [Entry 5, (DL)-(2-(2-Chlorophenyl)-2-carbamoyloxyethyl)oxocarboxamide] — 1.9-fold higher, 25 mg/kg

Same assay, conditions: dosed orally, Hour 4, elimination of hindlimb tonic extension

In the case of O=C(Nc1ccccc1)OC[C@H](OC(=O)Nc1ccccc1)c1ccccc1Cl [Entry 16, (R)-N-Phenyl(2-(2-chlorophenyl)-2-N-phenylcarbamoyloxyethyl)-oxocarboxamide], the “ED50” value is reported as over 20 mg/kg.
For CNC(=O)OC[C@H](OC(=O)NC)c1ccccc1Cl [Entry 14], the “ED50” value was over 20 mg/kg.
O=C(NCc1ccccc1)OC[C@H](OC(=O)NCc1ccccc1)c1ccccc1Cl [Entry 17, (R)-N-Benzyl(2-(2-chlorophenyl)-2-N-benzylcarbamoyloxyethyl)-oxocarboxamide] was tested, and the “ED50” value was over 20 mg/kg.

Point of comparison: “(S)-(2-(4-Chlorophenyl)-2-carbamoyloxyethyl)oxocarboxamide [Entry 10]”, “ED50” value 21.5 mg/kg. Against it:
- NC(=O)OC[C@H](OC(N)=O)c1ccccc1Cl [Entry 13, (R)-(2-(2-Chlorophenyl)-2-N-carbamoyloxyethyl)oxocarboxamide] — 2.4-fold lower, 8.9 mg/kg
